Results on one compound are retold here after publication PMC10916400, “Effect of the aggregated protein dye YAT2150 on Leishmania parasite viability” (Antimicrobial Agents and Chemotherapy, 2024).

Molecules are shown by their SMILES.

Data set [1] can be described thus: Human hepatocyte stability assay. To be noted: 37°C. The class given is in vitro ADME. How it is done: A vial of human hepatocytes (100 donor pool HCP100.H15/Lot: 2010012; XenoTech, Kansas City, KS, US) was removed from the liquid nitrogen tank and immersed into a water bath. When only a small ice crystal remained, the cell suspension was transferred to a tube with the preheated suspension medium (OptiThaw hepatocyte medium, K8000; XenoTech). After a brief centrifugation at 100 × g for 5 min, hepatocytes were gently resuspended with incubation medium (OptiIncubate hepatocyte medium, K8400; XenoTech) and counted, and viability was determined using trypan blue staining. One-micromolar compounds were incubated at 37°C and 5% CO2 in the presence of 0.5 × 10^6 hepatocytes in a 500-µL incubation volume. Aliquots were taken, and reactions were terminated with ACN at each of the six sampling time points (0, 15, 30, 60, 90, and 120 min). The samples were centrifuged, and the remaining compound was determined by UPLC-MS/MS analysis as above. Intrinsic clearance was calculated from the logarithm of the remaining compound at each of the times evaluated.

The subject of data set [2] is L. infantum promastigote cultures. Description: Protein aggregation assay in L. infantum cultures (ThT fluorescence). In kind it is cell-based, Leishmania infantum. The conditions noted are these: 0.15 and 0.3 µM YAT2150, 90 min and 4 h, promastigote culture extracts. As for the experimental part:
Ten milliliters of L. infantum promastigote cultures in the logarithmic growth phase at a concentration of 10^7 cells/mL in T-25 flasks (SPL Life Sciences, Pochon, Kyonggi-do, South Korea) was either treated with 0.15 µM or 0.3 µM YAT2150 or left untreated. After 90 min and 4 h of incubation, 1 mL of each culture was washed (3×, 1 mL PBS, 600 × g, 3 min) and the parasite-containing pellets were taken up in 100 µL of 4.5 mg/mL NaCl supplemented with 1× cOmplete protease inhibitor cocktail (Roche, Basel, Switzerland) and incubated overnight at 4°C with gentle stirring. After this time, samples were spun down (2,000 × g, 10 s) and the protein in each supernatant was quantified with the Pierce BCA protein assay kit (Thermo Electron Corporation, Waltham, MA, US). In a 96-well flat bottom black plate (Greiner Bio-One), 2 µg of protein from each supernatant was diluted in a final volume of 100 µL PBS in duplicates. Protein aggregation was measured by the addition of 25 µM ThT to each well, and after a 15-min incubation with gentle stirring, ThT fluorescence emission intensity was measured as detailed above.

In data set [3] the test system is L. infantum amastigotes. Description: Amastigote growth inhibition assay (parasite rescue and transformation, RAW 264.7 macrophages). In kind it is cell-based, Leishmania infantum. To be noted: in vitro. How it is done:
Compound activity on amastigotes was determined following the parasite rescue and transformation assay ([61]). RAW 264.7 macrophages were seeded in 96-well microtiter plates at 10^5 cells/mL of DMEM supplemented with 10% FBS and 1% penicillin-streptomycin (complete DMEM, DMEMc) in a final volume of 200 µL per well. After an overnight incubation (37°C, 5% CO2) to allow cell adherence, the medium was removed and 10^6 L. infantum promastigotes/mL were added (1:10 macrophage:promastigote ratio) in DMEM supplemented with 2% FBS and 1% penicillin-streptomycin (DMEM 2% FBS). After 24 h, parasites not internalized by macrophages were removed by washing (3×, PBS) and dilutions in DMEM 2% FBS of free or liposome-encapsulated compounds were added. After 48 h, the medium was removed, cells were washed three times with PBS, and 40 µL of 0.05% SDS in complete Schneider’s medium was added; after 40 s, 160 additional µL/well of complete Schneider’s medium was added and plates were incubated at 26°C for another 48 h. Then, resazurin sodium salt was incorporated at a final concentration of 0.00125% and plates were incubated for 24 h more in the same conditions. Afterwards, resorufin fluorescence was measured as above.

The term hepatocyte CLint denotes the capacity of the preparation to metabolise the compound, expressed as a volume cleared per time. Higher therefore signals faster metabolism. In general, amount remaining refers to what is left of the initial amount, in per cent. A high value points to greater stability. Broadly, the IC50 is the concentration needed to halve the response being measured. The low end stands for higher potency, the high end for lower potency.

In data set [1] (hepatocytes (cryopreserved, 100 donor pool)), `CCN(CC)c1ccc(/C=C/c2cc[n+](CCCCCCCCCC[n+]3ccc(/C=C/c4ccc(N(CC)CC)cc4)c(C)c3)cc2C)cc1` [YAT2150] displayed a hepatocyte CLint at 1 µM of 2.5 µL/min/1e6 cells. For the same compound, in data set [1] (human hepatocytes), the “t1/2, hepatocyte stability” value was determined as 4.622 h. This compound also had an amount remaining at 2 h, 1 µM in data set [1] (human, hepatocytes (cryopreserved, 100 donor pool), after 2 h) of 70%. In data set [1] (human, hepatocytes (cryopreserved, 100 donor pool), read-out: t1/2, hepatocyte stability), the half-life at 1 µM worked out at 4.62 h. In addition, the “overall aggregation of the parasite's proteins (ThT analysis)” value in data set [2] is listed as “reduced”. In addition, the IC50 in data set [3] (L. infantum amastigotes in RAW 264.7 macrophages) is 510 ± 110 nM; in data set [3] (Leishmania infantum, RAW264.7, L. infantum amastigotes in RAW 264.7 macrophages), ~520 nM.
